Molecules are shown by their SMILES. Some results are limits rather than exact numbers.

The experiment concerns the target T1, cloned human MC4R (Homo sapiens, UniProt P32245).
T1 construct: made in house; host or cells: Hi5 insect cells (baculovirus infection); membrane preparation
As to the kind of experiment: Membrane binding assay: competitive inhibition of [125I]NDP-α-MSH binding. Conditions: for Displacement Rate (%) (at 10 μM) / inhibition at 10 µM: [125I]NDP-α-MSH displacement; for IC50: read-out: MC4R IC50; for inhibition at 10 µM: read-out: Displacement Rate (%) (at 10 μM).

T1 sequence (P32245 whole entry): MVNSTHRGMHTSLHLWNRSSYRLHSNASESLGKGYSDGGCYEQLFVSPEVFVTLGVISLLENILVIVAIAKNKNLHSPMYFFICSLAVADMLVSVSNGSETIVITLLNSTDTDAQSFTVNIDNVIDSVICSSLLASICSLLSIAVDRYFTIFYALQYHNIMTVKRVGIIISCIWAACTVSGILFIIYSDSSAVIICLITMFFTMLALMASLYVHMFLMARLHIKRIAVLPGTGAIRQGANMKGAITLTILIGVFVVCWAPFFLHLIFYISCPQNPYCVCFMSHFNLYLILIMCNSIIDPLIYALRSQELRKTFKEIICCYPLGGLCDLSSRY

As a reminder, the IC50 is the midpoint of a concentration-inhibition curve. In the case of `N[C@@H](Cc1ccc(OCCc2cccc(F)c2)cc1)C(=O)N1CCN(Cc2cccc(Cl)c2Cl)CC1` [Example 240], the “Displacement Rate (%) (at 10 μM)” value was “+++ (+++ = 91-100)” and the IC50 is < 1.5 µM.

Turning to `N[C@@H](Cc1ccc(OCCc2ccc(Br)cc2)cc1)C(=O)N1CCN(Cc2cccc(Cl)c2Cl)CC1` [Example 241], the “Displacement Rate (%) (at 10 μM)” value was “+++ (+++ = 91-100)” and the IC50 was < 1.5 µM.

Take `N[C@@H](Cc1ccc(OCCc2ccccc2Cl)cc1)C(=O)N1CCN(Cc2cccc(Cl)c2Cl)CC1` [Example 242]: the “Displacement Rate (%) (at 10 μM)” value was “+++ (+++ = 91-100)” and the IC50 was < 1.5 µM.

Consider `COc1cccc(CCOc2ccc(C[C@H](N)C(=O)N3CCN(Cc4cccc(Cl)c4Cl)CC3)cc2)c1` [Example 243], for which the inhibition at 10 µM lay within 91 to 100% and the IC50 is < 1.5 µM.

As for `N[C@@H](Cc1ccc(OCCc2cccc3ccccc23)cc1)C(=O)N1CCN(Cc2cccc(Cl)c2Cl)CC1` [Example 244], the “Displacement Rate (%) (at 10 μM)” value is “+++ (+++ = 91-100)” and the IC50 was < 1.5 µM.

With `N[C@@H](Cc1ccc(OCCc2ccc(Cl)cc2)cc1)C(=O)N1CCN(Cc2cccc(Cl)c2Cl)CC1` [Example 245], the “Displacement Rate (%) (at 10 μM)” value is “+++ (+++ = 91-100)” and the IC50 is < 1.5 µM.

As for `N[C@@H](Cc1ccc(OCCc2ccc(Cl)cc2Cl)cc1)C(=O)N1CCN(Cc2cccc(Cl)c2Cl)CC1` [Example 246], the “Displacement Rate (%) (at 10 μM)” value was “+++ (+++ = 91-100)” and the IC50 is < 1.5 µM.

In the case of `N[C@@H](Cc1ccc(OCCc2ccc(F)cc2)cc1)C(=O)N1CCN(Cc2cccc(Cl)c2Cl)CC1` [Example 247], the “Displacement Rate (%) (at 10 μM)” value was “+++ (+++ = 91-100)” and the IC50 was < 1.5 µM.

Regarding `N[C@@H](Cc1ccc(OCCc2cccc(Br)c2)cc1)C(=O)N1CCN(Cc2cccc(Cl)c2Cl)CC1` [Example 248], the “Displacement Rate (%) (at 10 μM)” value is on record as “+++ (+++ = 91-100)” and the IC50 is < 1.5 µM.

With `N[C@@H](Cc1ccc(OCCc2cccc(Cl)c2)cc1)C(=O)N1CCN(Cc2cccc(Cl)c2Cl)CC1` [Example 249], the “Displacement Rate (%) (at 10 μM)” value is given as “+++ (+++ = 91-100)” and the IC50 was < 1.5 µM.

For `N[C@@H](Cc1ccc(OCCc2cccc(OCc3ccccc3)c2)cc1)C(=O)N1CCN(Cc2cccc(Cl)c2Cl)CC1` [Example 250], the “Displacement Rate (%) (at 10 μM)” value is given as “+++ (+++ = 91-100)” and the IC50 was < 1.5 µM.

Regarding `N[C@@H](Cc1ccc(OCCc2ccc(OCc3ccccc3)cc2)cc1)C(=O)N1CCN(Cc2cccc(Cl)c2Cl)CC1` [Example 251], the “Displacement Rate (%) (at 10 μM)” value is given as “+++ (+++ = 91-100)” and the IC50 was < 1.5 µM.

Turning to `N[C@@H](Cc1ccc(OCCc2ccccc2OCc2ccccc2)cc1)C(=O)N1CCN(Cc2cccc(Cl)c2Cl)CC1` [Example 252], the “Displacement Rate (%) (at 10 μM)” value is recorded as “+++ (+++ = 91-100)” and the concentration for half-maximal inhibition (IC50) is < 1.5 µM.

As for `N[C@@H](Cc1ccc(OCCc2ccccc2-c2ccccc2)cc1)C(=O)N1CCN(Cc2cccc(Cl)c2Cl)CC1` [Example 253], the “Displacement Rate (%) (at 10 μM)” value is “+++ (+++ = 91-100)” and the IC50 was < 1.5 µM.

Take `COc1ccc(CCOc2ccc(C[C@H](N)C(=O)N3CCN(Cc4cccc(Cl)c4Cl)CC3)cc2)cc1` [Example 254]: the “Displacement Rate (%) (at 10 μM)” value is on record as “+++ (+++ = 91-100)” and the IC50 was < 1.5 µM.

Regarding `N[C@@H](Cc1ccc(OCCc2cccc(C(F)(F)F)c2)cc1)C(=O)N1CCN(Cc2cccc(Cl)c2Cl)CC1` [Example 255], the “Displacement Rate (%) (at 10 μM)” value is reported as “+++ (+++ = 91-100)” and the IC50 is < 1.5 µM.

In the case of `N[C@@H](Cc1ccc(OCCc2ccc3ccccc3c2)cc1)C(=O)N1CCN(Cc2cccc(Cl)c2Cl)CC1` [Example 256], the “Displacement Rate (%) (at 10 μM)” value is reported as “+++ (+++ = 91-100)” and the IC50 is < 1.5 µM.

`N[C@@H](Cc1ccc(OCCc2cccc([N+](=O)[O-])c2)cc1)C(=O)N1CCN(Cc2cccc(Cl)c2Cl)CC1` [Example 257]: the “Displacement Rate (%) (at 10 μM)” value is reported as “+++ (+++ = 91-100)” and the IC50 is 1.5 to 3 µM.

On to `N[C@@H](Cc1ccc(OCCc2ccc([N+](=O)[O-])cc2)cc1)C(=O)N1CCN(Cc2cccc(Cl)c2Cl)CC1` [Example 258], for which the “Displacement Rate (%) (at 10 μM)” value is reported as “++ (++ = 71-90)” and the IC50 is > 3 µM.

In the case of `COc1ccc(CCOc2ccc(C[C@H](N)C(=O)N3CCN(Cc4cccc(Cl)c4Cl)CC3)cc2)cc1OC` [Example 259], the “Displacement Rate (%) (at 10 μM)” value is listed as “+ (+ = 35-70)” and the IC50 was > 3 µM.

In the case of `N[C@@H](Cc1ccc(OCCCc2ccc(OCc3ccccc3)cc2)cc1)C(=O)N1CCN(Cc2cccc(Cl)c2Cl)CC1` [Example 260], the “Displacement Rate (%) (at 10 μM)” value is “+++ (+++ = 91-100)” and the IC50 is < 1.5 µM.

As for `N[C@@H](Cc1ccc(OCCCc2ccccc2)cc1)C(=O)N1CCN(Cc2cccc(Cl)c2Cl)CC1` [Example 261], the “Displacement Rate (%) (at 10 μM)” value is given as “+++ (+++ = 91-100)” and the IC50 is < 1.5 µM.

`N[C@@H](Cc1ccc(OCCCCc2ccccc2)cc1)C(=O)N1CCN(Cc2cccc(Cl)c2Cl)CC1` [Example 262]: the “Displacement Rate (%) (at 10 μM)” value is on record as “+++ (+++ = 91-100)” and the IC50 was < 1.5 µM.

`CC(CCOc1ccc(C[C@H](N)C(=O)N2CCN(Cc3cccc(Cl)c3Cl)CC2)cc1)c1ccccc1` (stereo partly drawn) [Example 263]: the “Displacement Rate (%) (at 10 μM)” value is “+++ (+++ = 91-100)” and the IC50 was < 1.5 µM.

`COc1ccc(CCCOc2ccc(C[C@H](N)C(=O)N3CCN(Cc4cccc(Cl)c4Cl)CC3)cc2)cc1` [Example 264]: the “Displacement Rate (%) (at 10 μM)” value was “++ (++ = 71-90)” and the IC50 was 1.5 to 3 µM.

For the compound `COc1ccc(CCCOc2ccc(C[C@H](N)C(=O)N3CCN(Cc4cccc(Cl)c4Cl)CC3)cc2)cc1OC` [Example 265], the “Displacement Rate (%) (at 10 μM)” value was “++ (++ = 71-90)” and the IC50 is < 1.5 µM.

With `CCN(CCOc1ccc(C[C@H](N)C(=O)N2CCN(Cc3cccc(Cl)c3Cl)CC2)cc1)c1cccc(C)c1` [Example 282], the “Displacement Rate (%) (at 10 μM)” value is on record as “+++ (+++ = 91-100)” and the IC50 was < 1.5 µM.

`CN(CCOc1ccc(C[C@H](N)C(=O)N2CCN(Cc3cccc(Cl)c3Cl)CC2)cc1)Cc1ccccc1` [Example 285]: the “Displacement Rate (%) (at 10 μM)” value is “++ (++ = 71-90)” and the IC50 fell in the range of 1.5 to 3 µM.

On to `CN(CCCOc1ccc(C[C@H](N)C(=O)N2CCN(Cc3cccc(Cl)c3Cl)CC2)cc1)Cc1ccccc1` [Example 287], for which the “Displacement Rate (%) (at 10 μM)” value is reported as “+ (+ = 35-70)” and the IC50 was > 3 µM.

As to `N[C@@H](Cc1ccc(-c2ccccc2)cc1)C(=O)N1CCN(Cc2cccc(Cl)c2Cl)CC1` [Example 289], the IC50 was < 1.5 µM.

In the case of `Cc1ccc(-c2ccc(C[C@H](N)C(=O)N3CCN(Cc4cccc(Cl)c4Cl)CC3)cc2)cc1` [Example 290], the inhibition at 10 µM was in the range of 91 to 100% and the IC50 is < 1.5 µM.

For `CCc1ccc(-c2ccc(C[C@H](N)C(=O)N3CCN(Cc4cccc(Cl)c4Cl)CC3)cc2)cc1` [Example 291], the inhibition at 10 µM was 91 to 100% and the IC50 was < 1.5 µM.

For `N[C@@H](Cc1ccc(-c2ccc(OC(F)(F)F)cc2)cc1)C(=O)N1CCN(Cc2cccc(Cl)c2Cl)CC1` [Example 292], the inhibition at 10 µM fell in the range of 91 to 100% and the IC50 was < 1.5 µM.

In the case of `N[C@@H](Cc1ccc(-c2ccc3ccccc3c2)cc1)C(=O)N1CCN(Cc2cccc(Cl)c2Cl)CC1` [Example 293], the inhibition at 10 µM fell in the range of 91 to 100% and the concentration for half-maximal inhibition (IC50) was < 1.5 µM.

Take `N[C@@H](Cc1ccc(-c2ccc(Cl)c(Cl)c2)cc1)C(=O)N1CCN(Cc2cccc(Cl)c2Cl)CC1` [Example 294]: the inhibition at 10 µM lay within 91 to 100% and the IC50 is < 1.5 µM.

For `CSc1ccc(-c2ccc(C[C@H](N)C(=O)N3CCN(Cc4cccc(Cl)c4Cl)CC3)cc2)cc1` [Example 295], the inhibition at 10 µM is 91 to 100% and the IC50 was < 1.5 µM.

On to `N[C@@H](Cc1ccc(-c2ccc(F)cc2)cc1)C(=O)N1CCN(Cc2cccc(Cl)c2Cl)CC1` [Example 296], for which the inhibition at 10 µM was 91 to 100% and the IC50 was < 1.5 µM.

Turning to `N[C@@H](Cc1ccc(-c2cc(C(F)(F)F)cc(C(F)(F)F)c2)cc1)C(=O)N1CCN(Cc2cccc(Cl)c2Cl)CC1` [Example 297], the inhibition at 10 µM fell in the range of 91 to 100% and the IC50 was < 1.5 µM.

Regarding `N[C@@H](Cc1ccc(-c2ccc(Cl)cc2)cc1)C(=O)N1CCN(Cc2cccc(Cl)c2Cl)CC1` [Example 298], the inhibition at 10 µM is 91 to 100% and the IC50 is < 1.5 µM.

On to `N[C@@H](Cc1ccc(-c2cccc(Cl)c2Cl)cc1)C(=O)N1CCN(Cc2cccc(Cl)c2Cl)CC1` [Example 299], for which the inhibition at 10 µM fell in the range of 91 to 100% and the IC50 is < 1.5 µM.

For the compound `N[C@@H](Cc1ccc(-c2cccc3ccccc23)cc1)C(=O)N1CCN(Cc2cccc(Cl)c2Cl)CC1` [Example 300], the inhibition at 10 µM lay in the range of 91 to 100% and the IC50 was < 1.5 µM.

Consider `N[C@@H](Cc1ccc(-c2cccc(Cl)c2)cc1)C(=O)N1CCN(Cc2cccc(Cl)c2Cl)CC1` [Example 301], for which the inhibition at 10 µM is 91 to 100% and the half-maximal inhibitory concentration (IC50) was < 1.5 µM.

Regarding `N[C@@H](Cc1ccc(-c2ccc(Oc3ccccc3)cc2)cc1)C(=O)N1CCN(Cc2cccc(Cl)c2Cl)CC1` [Example 302], the inhibition at 10 µM fell in the range of 91 to 100% and the IC50 was < 1.5 µM.

Take `N[C@@H](Cc1ccc(-c2ccc(C(F)(F)F)cc2)cc1)C(=O)N1CCN(Cc2cccc(Cl)c2Cl)CC1` [Example 304]: the inhibition at 10 µM lay within 91 to 100% and the IC50 was < 1.5 µM.

As to `CC(C)(C)c1ccc(-c2ccc(C[C@H](N)C(=O)N3CCN(Cc4cccc(Cl)c4Cl)CC3)cc2)cc1` [Example 305], the inhibition at 10 µM lay within 91 to 100% and the IC50 was < 1.5 µM.

Turning to `N[C@@H](Cc1ccc(-c2ccc(F)c(Cl)c2)cc1)C(=O)N1CCN(Cc2cccc(Cl)c2Cl)CC1` [Example 306], the inhibition at 10 µM lay in the range of 91 to 100% and the IC50 was < 1.5 µM.

In the case of `N[C@@H](Cc1ccc(-c2ccc(Cl)cc2Cl)cc1)C(=O)N1CCN(Cc2cccc(Cl)c2Cl)CC1` [Example 307], the inhibition at 10 µM is 91 to 100% and the IC50 was < 1.5 µM.

The values are drawn from US6916812B2, “Alpha-aminoamide derivatives as melanocortin agonists” (Bristol-Myers Squibb Company, priority 2001, dated 2005).
